The subject of data set [1] is U87MG human glioma cell line. The data set is described as follows: Cell viability test (CCK-8) in U87MG. The class given is cell-based. Conditions: 50 μM GL equivalent, after 48 h treatment. The procedure:
Cell viability was determined using a cell counting kit-8 (CCK-8). U87MG and HUVECs (seeding density: 0.75 × 10^4 cells per well) in 96-well culture plates were treated with GL, Lf, or Lf-GL (25 to 200 × 10^–6 M of GL equivalent concentration) and were incubated for different periods of time (24, 48, and 72 h). After washing with PBS, they were treated with a cell culture medium containing a CCK-8 assay kit (Abbkine) and were incubated at 37 °C and 5% CO2 for 2 h. Then, absorbance was measured at 450 nm in a micro-plate reader (VLBL00D0, Thermo Fisher Scientific). Results were quantified using Sigma Plot (Systat Software, USA). To determine the effect of extracellular HMGB1 in GBM and endothelial cell proliferation, U87MG and HUVECs were seeded in 96-well culture plates (seeding density: 0.75 × 10^4 cells per well) and GL, Lf, or Lf-GL (50 × 10^–6 M GL equivalent concentration) were added to cells with or without HMGB1 protein (U87MG: 0.1 μg mL^−1, and HUVEC: 1 μg mL^−1). Cells were incubated for different periods of time (24, 48, and 72 h).

Data set [2] deals with HMGB1. Description: HMGB1 ELISA of U87MG culture medium. In kind it is cell-based, human. Particulars: 50 μM GL equivalent, 48 h (control 131.8 ± 11.4). As for the experimental part: U87MG cells were seeded in 100 mm-cell culture dishes (2.2 × 10^6 cells per dish) and treated with GL, Lf, or Lf-GL (50 × 10^–6 M GL equivalent concentration) for 48 h. After incubating, cells were collected using a cell scrapper and were centrifuged for 3 min at 150 × g. Supernatant was collected as cell culture medium, and pellets were washed with cold PBS twice and transferred into a microcentrifuge tube. Tubes were centrifuged, and then pellets were resuspended in 500 μL 1X hypotonic buffer and incubated on ice. Then, 25 μL of NP40 was added and the mixture was agitated using a vortex mixer at the highest setting. Homogenates were centrifuged for 10 min at 842 × g at 4℃. Supernatant was collected as the cytoplasmic fraction, and pellets were resuspended in cell extraction buffer (50 μL) and were incubated for 30 min on ice with vortexing at 10 min intervals. Then, homogenates were centrifuged for 30 min at 14,000 × g at 4℃. Supernatant was collected as the nuclear fraction. The amount of HMGB1 in the samples was measured using a HMGB1 ELISA kit (Abbkine), and absorbance was measured at 450 nm in a micro-plate reader. A DNA assay (Quant-iT™ dsDNA Assay Kit, Invitrogen) was also conducted to express HMGB1 concentrations in equivalent amounts of DNA.
(An ELISA detects its analyte on a solid surface through an enzyme-linked reagent.)

The nature of data set [3]: GBM targeted-GL by HPLC in brain homogenate. The class given is in vivo, orthotopic GBM model mice. Particulars: Balb/c nude, mouse, brain homogenate, iv; orthotopic GBM mice, i.v. GL equivalent 50 mg kg^−1, 10 min after injection; read-out: GL concentration detected in brain homogenate. The procedure:
Orthotopic GBM mice model mice were used for quantification of GBM targeting efficacy. The brain tissue was homogenized in deionized water at a 33.3 w/v (%) using a FastPrep-24 5G (MP biomedical, South Korea). The GL were added to pooled brain homogenate to obtain seven-point calibration curves with a range of 10–1000 ng mL^−1. Then, homogenate (50 μL) was mixed with methanol (100 μL). […] Thereafter, supernatants (100 μL) were mixed with mobile phase solution (900 μL), then filtered with a 0.22 μm syringe filter. Samples were collected in a 2 mL HPLC vial (Screw top vial, Waters, USA) and analyzed by HPLC at 254 nm. […] Mice were sacrificed and brain tissues were collected 10 min after the GL and Lf-GL injection. The samples for quantification were also conducted using the same process as GL standard preparation.

In data set [4] the test system is orthotopic GBM (U87MG) mice model. The data set is described as follows: Nissl staining: GBM/normal brain ratio. The class given is in vivo, Balb/c nude mice. Conditions: daily i.v. GL equivalent 50 mg kg^−1, 14 days (control 37.5 ± 2.3). From the text: After two weeks, mice were sacrificed, and the brains were harvested and fixed with paraformaldehyde (4%). Then, tissue processing was automatically conducted using a Leica TP1020 semi-enclosed Benchtop Tissue Processor (Leica Biosystems, Wetzlar, Hesse, Germany), followed by embedding in paraffin blocks. Paraffin blocks were sliced into 5 μm thick slices using a Leica RM2145 Microtome (Leica Biosystems). Nissl staining was used to stain brain tissue slides with pre-warmed 0.1% Cresyl Violet Stain Solution (Abcam). TUNEL assays were conducted following the manufacturer’s instructions. For immunofluorescence staining; anti-HMGB1 antibody (Abcam), anti-Ki67 antibody (Abcam), anti-CD31 antibody (Abcam), and anti-VEGF antibody (Abcam) were used as primary antibodies, and goat anti-rabbit IgG-H&L Alexa Fluor 488 and goat anti-rabbit IgG H&L Alexa Fluor 647 were used as secondary antibodies, followed by DAPI mounting.

For data set [5], the target named is HMGB1 box B. More on the design: method as in PMID 17462578. Conditions: previously reported; cited from earlier work.
A short description of data set [6]: In vivo pharmacokinetics study.
[7] abbreviates: Balb/c, mouse, plasma, iv, 50 mg/kg.

`CC1(C)[C@@H](O[C@H]2O[C@H](C(=O)O)[C@@H](O)[C@H](O)[C@H]2O[C@@H]2O[C@H](C(=O)O)[C@@H](O)[C@H](O)[C@H]2O)CC[C@]2(C)[C@H]3C(=O)C=C4[C@@H]5C[C@@](C)(C(=O)O)CC[C@]5(C)CC[C@@]4(C)[C@]3(C)CC[C@@H]12` [GL, Glycyrrhizin]: in data set [1], the “Number of cells, % of the original count” value is given as 93.4 ± 4.8%. In addition, the “HMGB1 released into the medium of U87MG cells” value in data set [2] came out at 80.7 ± 4.5 ng/mL. In addition, in data set [3], the concentration at 10 min turned out to be 9800 ± 2300 ng/mL. In data set [4], the GBM/normal brain ratio is given as 26.4 ± 5.7. For the same compound, the Kd in data set [5] was 140 ± 3 µM. Besides, in data set [6] (setting [7]), the AUC(0-t) was 102 µg·h/mL, the Cmax amounted to 254 ± 117 µg/mL, the MRT is 4.6 min and the Tmax is 1 min. Moreover, the half-life in data set [6] (Balb/c, mouse, plasma, iv, 50 mg/kg, T1/2, elimination half-life, mice, GL equivalent 50 mg kg^−1, plasma) was around 3.8 min. Also, the “Time after administration until cleared from / remaining in circulation” value in data set [6] (mice, i.v., GL equivalent 50 mg kg^−1) was 150 min.

One may read the Kd as a measure of binding affinity in units of concentration. Usually AUC(0-t) stands for exposure summed from dosing to a finite time, without extrapolation to infinity. By Cmax is commonly meant the highest concentration seen after dosing. The term MRT denotes the average time that molecules of a dose stay in the body. One may read the Tmax as the time from dosing to the highest level. What is called half-life is how long it takes for the measured level to halve.
